PubChem BioAssay AID652 (University of Pittsburgh Molecular Library Screening Center, 2007)
Active and inactive are the calls of the source. No rule for the calls is given here.

target: Gag-Pol polyprotein (Human immunodeficiency virus type 1 group M subtype B (isolate HXB2)) (UniProt P04585); assay: HIV-1 RT RNase H inhibitor potency, dose response, biochemical, probe assessment (AID 652); details: HIV-1 RT RNase H enzymatic assay

SMILES | IC50
Oc1ccc(-c2nc(-c3ccc(O)c(O)c3)cs2)cc1 | 2.23 µM
CCOc1ccc(N2Cc3ccccc3C2)cc1 | 7.36 µM
Cc1ccccc1N1C(=O)c2sc3nc4c(c(=O)n3c2C1=O)CCC4 | 2.37 µM
N#CC1=C(N)SC(N)=C(C#N)C1c1ccnc2ccccc12 | 13.7 µM
O=S(=O)(/N=S1/CC=CCN1S(=O)(=O)c1ccccc1)c1ccccc1 (centres undefined) | 4.33 µM
O=C1C=Cc2ccccc2C1=O | 2.64 µM
C/C=C/CSc1nc2c(c(=O)[nH]c(=O)n2C)n1Cc1ccc(C)cc1 | 11.2 µM
CCCCn1c(SCC(=O)OCC)nc2c1c(=O)[nH]c(=O)n2C | > 50 µM (inactive)
CCOc1cccc(C=Nc2cc(C)cc(C)c2O)c1O | > 50 µM (inactive)
Fc1ccccc1CSc1nc2ncccc2[nH]1 | 9.72 µM

same assay, conditions: HIV-1 RT RNase H enzymatic assay, inhibition, at 50 µM, stronger effect = higher value

SMILES | inhibition
COc1ccc2ccccc2c1C1CC(=O)N2CN(C3CCCCC3)CSC2=C1C#N (centres undefined) | 92.3%
Cc1noc(C)c1CSc1nc2cc(S(=O)(=O)N3CCOCC3)ccc2o1 | 88.3%
NC(=O)c1cc(-c2ccccc2)sc1NC(=O)Cc1ccc(S(=O)(=O)N2CCOCC2)s1 | 83.3%
COc1ccc(S(=O)(=O)Nc2ccc(O)c3ccccc23)cc1 | 67.3%
CCOC(=O)C1=C(C)N=c2s/c(=C3\C(=O)Nc4ccccc43)c(=O)n2C1c1ccc2c(c1)OCO2 (centres undefined) | 83.8%
COc1cc(OC)c(C2CC(=O)N3CN(C)CSC3=C2C#N)cc1OC (centres undefined) | 76.1%
c1ccc2c(c1)ncn2Cc1nnc2sc(-c3ccc4c(c3)OCO4)nn12 | 93%
O=C(c1ccc2c3c(cccc13)C(=O)N(O)C2=O)N1CCCCC1 | 91.7%
COc1cc(OC)c(C2CC(=O)N3CN(c4ccccc4C)CSC3=C2C#N)cc1OC (centres undefined) | 97.9%
COc1cccc(OCC(=O)Nc2c(C(=O)Nc3ccc(OC)cc3OC)oc3ccccc23)c1 | 88.5%
N#Cc1c(NC(=O)c2ccc(Cn3cc(Br)cn3)o2)sc2c1CCCCCC2 | 98%
COc1ccc(N2CSC3=C(C#N)C(c4cc(OC)c(OC)cc4OC)CC(=O)N3C2)c(OC)c1 (centres undefined) | 76.1%
CCCc1nnc(NC(=O)CN2C(=O)c3ccccc3S2(=O)=O)s1 | 75.7%
CC(C)Cn1c(SCC(=O)NC(=O)Nc2ccc3c(c2)OCCO3)nc2ccccc2c1=O | 83.9%
N#Cc1nc(-c2ccc(OCc3ccc(Cl)cc3)cc2)oc1NCc1cccnc1 | 99.4%
CCOC(=O)c1c(N)sc2c1CCC1C(=O)N(C3CCCCC3)C(=O)C21 (centres undefined) | 96.1%
COC(=O)c1ccc2c(c1)N(Cc1nc(-c3cccc(C)c3)oc1C)C(=O)C1CCCN21 (centres undefined) | 78.1%
CC(C)c1ccc(C2CC(=O)N3CN(C)CSC3=C2C#N)cc1 (centres undefined) | 86.9%
COCCSc1ccccc1C(=O)Nc1cc(C)on1 | 65.1%
CCc1ccc(NC(=O)CSc2nc3cc(C(=O)OC)ccc3c(=O)n2Cc2ccco2)cc1 | 94.7%
COc1cccc(-c2nnc(NC(=O)c3ccc(S(=O)(=O)N(CC(C)C)CC(C)C)cc3)o2)c1 | 84.4%
O=C(CCN1C(=O)c2ccccc2C1=O)Nc1ccc(-c2nc3ccccc3o2)cc1 | 92.1%
Oc1ccc(-c2nc(-c3ccc(O)c(O)c3)cs2)cc1 | 101%
CCc1ccccc1N1CSC2=C(C#N)C(c3ccccc3F)CC(=O)N2C1 (centres undefined) | 98.5%
c1ccc2c(c1)nnn2Cc1nnc2sc(-c3ccncc3)nn12 | 90.6%
CCCCCCNC(=O)c1c(N)n(/N=C/c2ccco2)c2nc3ccccc3nc12 | 98.3%

SMILES | inhibition
CCOc1ccc(N2Cc3ccccc3C2)cc1 | 80%
Cc1sc(NC(=O)c2oc3ccccc3c2C)c(C#N)c1C | 90.3%
O=C(COc1ccc(Br)cc1)Nc1ccc(-c2nnc(-c3ccco3)o2)cc1 | 95.1%
c1ccc(Cc2nn3c(Cn4nnc5ccccc54)nnc3s2)cc1 | 96.1%
Cc1cccc(C)c1NC(=O)CSCC(=O)c1ccc(O)c(O)c1 | 94.7%
C=CCn1c(SCC(=O)NC(=O)NCc2ccco2)nc2sc(C)c(C)c2c1=O | 83.8%
O=S(=O)(c1ccc(S(=O)(=O)N2CCN(C/C=C/c3ccccc3)CC2)cc1)N1CCCC1 | 96.9%
Cc1ccc(NC(=O)Cn2nnc(C(=O)Nc3ccc(C)c(C)c3)c2N)cc1 | 76.8%
COc1ccc(OC)c(S(=O)(=O)Nc2ccc(O)c(Sc3ncn[nH]3)c2)c1 | 89.7%
O=C(NCCc1ccccc1)c1c(O)c2cccc3c2n(c1=O)CC3 | 67.7%
c1ccc2c(c1)OCC(c1nnc3sc(-c4ccc5c(c4)OCO5)nn13)O2 (centres undefined) | 97.2%
O=c1[nH]c(=O)n(-c2ccc(F)cc2)c(O)c1C=Nc1ccccc1N1CCCC1 | 83.7%
COc1ccc(N2CCN(Cc3cc(=O)oc4cc5c(cc34)CCCC5)CC2)cc1 | 88.8%
Cc1ccccc1N1C(=O)c2sc3nc4c(c(=O)n3c2C1=O)CCC4 | 98.7%
COC(=O)N(c1ccccc1)P1(=S)OCCO1 | 81.9%
COc1ccc(N2CCN(Cc3cc(=O)oc4cc(-c5ccccc5)c(O)cc34)CC2)cc1 | 96.2%
O=C(CSc1nnnn1-c1ccccc1)Nc1nsc(-c2ccc(Cl)cc2)n1 | 48.8%
c1ccc2[nH]c(SN3CCOCC3)nc2c1 | 74.2%
Cc1ccc(-n2sc3ccccc3c2=O)cc1S(=O)(=O)N1CCCCC1 | 96.9%
C=CCNC(=O)c1c(N)n(-c2ccc3c(c2)OCO3)c2nc3ccccc3nc12 | 55.2%
CCCSc1nc2c(cnn2-c2ccc(Cl)cc2)c(=O)[nH]1 | 92.8%
COC(=O)c1ccc2c(=O)n(Cc3ccco3)c(SCC(=O)Nc3ccccc3Cl)nc2c1 | 92.2%
CCOC(=O)c1c(C)[nH]c(C(=O)CSc2nc3ccccc3o2)c1C | 93.7%
Cc1nc(C)c(C(=O)Nc2nc3c(C)cccc3s2)o1 | 100%
O=C(Nc1ccc(N2CCOCC2)cc1)c1ccc2nc(-c3ccco3)c(-c3ccco3)nc2c1 | 93.4%
N#CC1=C(N)SC(N)=C(C#N)C1c1ccnc2ccccc12 | 70.4%

SMILES | inhibition
S=c1nc(C2CC2)[nH]c2ccccc12 | 97.1%
Cc1nn2c(-c3cccc(NC(=O)CSc4nc5ccccc5o4)c3)nnc2c2ccccc12 | 98.2%
CN(C)c1cccc(C(=O)Nc2cccc(F)c2)c1 | 72%
N#Cc1c(N)nc(SCC(=O)NC2CCCCC2)c(C#N)c1-c1ccc(Cl)cc1 | 64.2%
c1ccc(-n2ncc3c2ncn2nc(-c4ccco4)nc32)cc1 | 89.8%
O=S(=O)(/N=S1/CC=CCN1S(=O)(=O)c1ccccc1)c1ccccc1 (centres undefined) | 69%
Cc1ccc(Cn2c(SCC(C)C)nc3c2c(=O)[nH]c(=O)n3C)cc1 | 91.8%
CCOc1ccc(S(=O)(=O)Nc2cc(Sc3ncn[nH]3)c3oc(=O)sc3c2)cc1 | 94.6%
CCCN(CCC)S(=O)(=O)c1ccc(C(=O)Nc2nnc(-c3cccc(OC)c3)o2)cc1 | 87.4%
Cc1sc(-n2c(C)cc(/C=N/n3cnnc3)c2C)c(C#N)c1C | 89.5%
Cc1cc(NC(=O)CSc2ccc(-c3nc4cc(C)c(C)cc4[nH]3)cn2)no1 | 83%
Cc1ccc(-n2nc(C)c3c2NC(=O)CSC3c2ccc3c(c2)OCO3)cc1 (centres undefined) | 89.4%
CC(=O)C(C(C)=O)c1c(Cl)c(O)c(O)c2c(C(=O)c3ccccc3)coc12 | 93.1%
O=C(Nc1ccc2nc(-c3ccco3)c(-c3ccco3)nc2c1)N1CCCCCC1 | 97%
CCOC(=O)N1CCc2c(sc3c2C(=O)NC(c2ccc(-c4ccc(Cl)cc4)o2)N3)C1 (centres undefined) | 94.3%
COc1ccccc1N1CSC2=C(C#N)C(c3ccc(SC)cc3)CC(=O)N2C1 (centres undefined) | 97.1%
O=C1C=Cc2ccccc2C1=O | 97.7%
O=c1c2ccccc2[se]n1-c1ccccc1 | 85.5%
O=C(NC1CCS(=O)(=O)C1)c1c(NC(=O)C2COc3ccccc3O2)sc2c1CCCC2 (centres undefined) | 88.4%
Cc1nc(-c2cccc(S(=O)(=O)N3CCOCC3)c2)cs1 | 96.4%
C/C=C/CSc1nc2c(c(=O)[nH]c(=O)n2C)n1Cc1ccc(C)cc1 | 101%
c1cncc(-c2nn3c(Cn4cnc5ccccc54)nnc3s2)c1 | 85.4%
c1ccc(N2CCN(c3nc4cc5c(cc4s3)OCO5)CC2)cc1 | 97.6%
O=C1CC(c2ccccc2)Cc2nc(N3CCc4ccccc43)ncc21 (centres undefined) | 94.6%
CCCc1cc(C(=O)Nc2sc(C)c(C)c2C(=O)OCC)no1 | 98%
CCn1cc(C(=O)NCc2ccco2)c(=O)c2cc(S(=O)(=O)N3CCc4ccccc4C3)ccc21 | 76.8%

SMILES | inhibition
CCCCCn1c(SCCCC)nc2c1c(=O)[nH]c(=O)n2C | 91.1%
CCCCn1c(SCC(=O)OCC)nc2c1c(=O)[nH]c(=O)n2C | 55.7%
CCCc1cc(C(N)=O)c(NC(=O)C2CCCO2)s1 (centres undefined) | 98.3%
Cc1cccc(OCC(=O)Nc2cccc(-c3nnc(-c4ccccc4)o3)c2)c1C | 88.1%
c1ccc(Cc2nnc3sc(-c4ccncc4)nn23)cc1 | 80.4%
CCOC(=O)c1c(C2COc3ccccc3O2)csc1NC(=O)c1ccco1 (centres undefined) | 96.6%
O=C(CSc1ncn[nH]1)c1ccccc1 | 84.1%
CCC1(C)Cc2c(sc3c2c(=O)n(C)c2nnc(SCc4ccc5c(c4)OCO5)n32)CO1 (centres undefined) | 96.2%
CCOc1cccc(C=Nc2cc(C)cc(C)c2O)c1O | 20.5%
COc1ccc2[nH]c(=O)c(CN(C3CCCCC3)C(c3nnnn3Cc3ccco3)C(C)C)cc2c1 (centres undefined) | 88.5%
Nc1c(C(=O)N2CCCCC2)sc(=S)n1-c1ccccc1 | 83.2%
COc1ccc(C2C(C(C)=O)=C(C)N=c3s/c(=C/c4ccc5c(c4)OCO5)c(=O)n32)cc1 (centres undefined) | 82.2%
Cc1cc(NC(=O)CSc2nc(C3CC3)nc3sc4c(c23)CCC(C)C4)no1 (centres undefined) | 94.1%
CCC1CCCCN1S(=O)(=O)c1ccc(S(=O)(=O)N2CCN(S(=O)(=O)CC)CC2)cc1 (centres undefined) | 93%
CCOC(=O)c1c(NC(=O)c2cc(C3CC3)on2)sc2c1CCCC2 | 97.1%
CCOc1cc(C2CC(=O)N3CN(C4CCCCC4)CSC3=C2C#N)ccc1O (centres undefined) | 85.6%
CCOC(=O)Cc1csc(-n2sc3ccccc3c2=O)n1 | 96.4%
CC1CCc2c(sc(NC(=O)c3ccc(Cn4cc(Br)cn4)o3)c2C(N)=O)C1 (centres undefined) | 76.3%
CCOC(=O)c1sc(NC(=O)CSc2n[nH]c(-c3ccccc3)n2)c(C#N)c1C | 101%
CCn1c(SCC(=O)c2ccc(O)c(O)c2)nnc1-c1ccccc1OC | 98.4%
O=C(NCc1ccco1)c1cccnc1-c1nc2ccccc2s1 | 93.7%
CC(C)c1nc2sc3c(SCC(=O)NCc4ccco4)ncnc3c2c2c1CCC2 | 94.1%
CC1=C(SCCC#N)S/C(=C2\SC(C)=C(SCCC#N)S2)S1 | 97.5%
C=CCn1c(=O)c(C(=O)Nc2nnc(C)s2)c(O)c2ccccc21 | 84.5%
Fc1ccccc1CSc1nc2ncccc2[nH]1 | 57.7%
Cc1cccc(C(=O)OCC(=O)Nc2ccc(N3CCCCC3)cc2)c1O | 94.7%
